Organism: Rattus norvegicus
Assay: Open TG-GATES - Regimen: Single
Format: toxicity, organism-based, Sprague-Dawley
Design: regimen Single, gender Male, age 6 weeks
Settings: in vivo, po, route gavage; for APTT / Bas / Eos / Fbg / Hb / Ht / Lym / MCH / MCHC / MCV / Mono / Neu / PT / Plat / RBC / Ret / WBC: tissue Blood; for KIDNEY_L / KIDNEY_R / KIDNEY_TOTAL: tissue Kidney; for LIVER: tissue Liver; for A/G / ALP / ALT / AST / BUN / CRE / Ca / Cl / DBIL / GLC / IP / K / LDH / Na / PL / RALB / TBIL / TC / TG / TP / gamma-GTP: tissue Plasma
[1] = 0 mg/kg, 3 h, dose level Control
[2] = 0 mg/kg, 6 h, dose level Control
[3] = 0 mg/kg, 9 h, dose level Control
[4] = 0 mg/kg, 24 h, dose level Control
[5] = 100 mg/kg, 24 h, dose level Low

## C[C@H]1O[C@H](O[C@H]2[C@H](O)[C@@H](O)[C@@H](O[C@H]3[C@H](O)[C@@H](O)C(O)O[C@@H]3CO)O[C@@H]2CO)[C@H](O)[C@@H](O)[C@@H]1N[C@H]1C=C(CO)[C@@H](O)[C@H](O)[C@H]1O (some centres undefined) [ACARBOSE]
[1]
  TERMINAL_BW: 196.9 g
  APTT: 16.9 s
  Bas: 0.2%
  Eos: 0.8%
  Fbg: 275 mg/dL
  Hb: 13.4 g/dL
  Ht: 41.3%
  Lym: 78.6%
  MCH: 20.8 pg
  MCHC: 32.6%
  MCV: 63.7 fL
  Mono: 2.6%
  Neu: 16.8%
  PT: 13.6 s
  Plat: 116.5 x10_4/uL
  RBC: 647.8 x10_4/ul
  Ret: 8.1%
  WBC: 97.1 x10_2/uL
  KIDNEY_L: 0.9 g
  KIDNEY_R: 0.9 g
  KIDNEY_TOTAL: 1.8 g
  LIVER: 8.8 g
  A/G: 0.9
  ALP: 1499.8 IU/L
  ALT: 36 IU/L
  AST: 72.6 IU/L
  BUN: 10.4 mg/dL
  CRE: 0.2 mg/dL
  Ca: 10.7 mg/dL
  Cl: 105.2 meq/L
  DBIL: 0.006 mg/dL
  GLC: 174.6 mg/dL
  IP: 9.5 mg/dL
  K: 4 meq/L
  LDH: 58.2 IU/L
  Na: 141.4 meq/L
  PL: 133 mg/dL
  RALB: 2.5 g/dL
  TBIL: 0.06 mg/dL
  TC: 73.6 mg/dL
  TG: 46.8 mg/dL
  TP: 5.2 g/dL
  gamma-GTP: 1 IU/L
[2]
  TERMINAL_BW: 197.1 g
  APTT: 17.2 s
  Bas: 0.2%
  Eos: 0.6%
  Fbg: 286 mg/dL
  Hb: 13.2 g/dL
  Ht: 40.8%
  Lym: 73.6%
  MCH: 21 pg
  MCHC: 32.3%
  MCV: 64.9 fL
  Mono: 2.6%
  Neu: 22.4%
  PT: 13.7 s
  Plat: 125.4 x10_4/uL
  RBC: 629.8 x10_4/ul
  Ret: 8.4%
  WBC: 74.2 x10_2/uL
  KIDNEY_L: 0.9 g
  KIDNEY_R: 0.9 g
  KIDNEY_TOTAL: 1.9 g
  LIVER: 8.2 g
  A/G: 0.9
  ALP: 1467.2 IU/L
  ALT: 35.2 IU/L
  AST: 72.2 IU/L
  BUN: 8.8 mg/dL
  CRE: 0.2 mg/dL
  Ca: 10.5 mg/dL
  Cl: 104.6 meq/L
  DBIL: 0.004 mg/dL
  GLC: 166 mg/dL
  IP: 10.4 mg/dL
  K: 3.7 meq/L
  LDH: 65 IU/L
  Na: 141.6 meq/L
  PL: 136.8 mg/dL
  RALB: 2.5 g/dL
  TBIL: 0.064 mg/dL
  TC: 73.4 mg/dL
  TG: 72.4 mg/dL
  TP: 5.2 g/dL
  gamma-GTP: 1.4 IU/L
[3]
  TERMINAL_BW: 198.4 g
  APTT: 18.3 s
  Bas: 0%
  Eos: 0.8%
  Fbg: 306.6 mg/dL
  Hb: 13.2 g/dL
  Ht: 40.7%
  Lym: 75.2%
  MCH: 20.9 pg
  MCHC: 32.3%
  MCV: 64.8 fL
  Mono: 1.8%
  Neu: 21%
  PT: 13.6 s
  Plat: 122.9 x10_4/uL
  RBC: 629.4 x10_4/ul
  Ret: 8.4%
  WBC: 90.2 x10_2/uL
  KIDNEY_L: 0.9 g
  KIDNEY_R: 0.9 g
  KIDNEY_TOTAL: 1.8 g
  LIVER: 8.1 g
  A/G: 0.9
  ALP: 1467.6 IU/L
  ALT: 35.2 IU/L
  AST: 69.4 IU/L
  BUN: 8.6 mg/dL
  CRE: 0.2 mg/dL
  Ca: 10.4 mg/dL
  Cl: 104.2 meq/L
  DBIL: 0.006 mg/dL
  GLC: 177.8 mg/dL
  IP: 10.2 mg/dL
  K: 3.9 meq/L
  LDH: 63.8 IU/L
  Na: 140.8 meq/L
  PL: 133.6 mg/dL
  RALB: 2.5 g/dL
  TBIL: 0.06 mg/dL
  TC: 73.6 mg/dL
  TG: 52.4 mg/dL
  TP: 5.2 g/dL
  gamma-GTP: 1.2 IU/L
[4]
  TERMINAL_BW: 211.4 g
  APTT: 19.4 s
  Bas: 0%
  Eos: 1%
  Fbg: 269.6 mg/dL
  Hb: 13.2 g/dL
  Ht: 40.1%
  Lym: 73.6%
  MCH: 20.7 pg
  MCHC: 32.8%
  MCV: 63 fL
  Mono: 3.2%
  Neu: 21.4%
  PT: 13.1 s
  Plat: 113.4 x10_4/uL
  RBC: 636.6 x10_4/ul
  Ret: 7.9%
  WBC: 81.7 x10_2/uL
  KIDNEY_L: 1 g
  KIDNEY_R: 0.9 g
  KIDNEY_TOTAL: 1.9 g
  LIVER: 9.8 g
  A/G: 0.9
  ALP: 1381.8 IU/L
  ALT: 42.2 IU/L
  AST: 71.6 IU/L
  BUN: 14.2 mg/dL
  CRE: 0.2 mg/dL
  Ca: 10.7 mg/dL
  Cl: 103.8 meq/L
  DBIL: 0.006 mg/dL
  GLC: 175.8 mg/dL
  IP: 8.3 mg/dL
  K: 3.9 meq/L
  LDH: 60.8 IU/L
  Na: 141.4 meq/L
  PL: 139.8 mg/dL
  RALB: 2.5 g/dL
  TBIL: 0.062 mg/dL
  TC: 78 mg/dL
  TG: 59.2 mg/dL
  TP: 5.3 g/dL
  gamma-GTP: 1 IU/L
100 mg/kg, 3 h, dose level Low
  TERMINAL_BW: 197.7 g
  APTT: 16.7 s
  Bas: 0.2%
  Eos: 0.8%
  Fbg: 274.6 mg/dL
  Hb: 13.5 g/dL
  Ht: 41.3%
  Lym: 78.4%
  MCH: 21.1 pg
  MCHC: 32.6%
  MCV: 64.8 fL
  Mono: 2%
  Neu: 17.8%
  PT: 13.6 s
  Plat: 118.3 x10_4/uL
  RBC: 639 x10_4/ul
  Ret: 8.2%
  WBC: 89.6 x10_2/uL
  KIDNEY_L: 0.9 g
  KIDNEY_R: 0.9 g
  KIDNEY_TOTAL: 1.8 g
  LIVER: 8.5 g
  A/G: 0.9
  ALP: 1409.6 IU/L
  ALT: 39.2 IU/L
  AST: 77.6 IU/L
  BUN: 10.4 mg/dL
  CRE: 0.2 mg/dL
  Ca: 10.7 mg/dL
  Cl: 104.6 meq/L
  DBIL: 0.004 mg/dL
  GLC: 172.2 mg/dL
  IP: 9.9 mg/dL
  K: 3.8 meq/L
  LDH: 60 IU/L
  Na: 141.2 meq/L
  PL: 136.4 mg/dL
  RALB: 2.5 g/dL
  TBIL: 0.062 mg/dL
  TC: 75.4 mg/dL
  TG: 39.2 mg/dL
  TP: 5.1 g/dL
  gamma-GTP: 1 IU/L
100 mg/kg, 6 h, dose level Low
  TERMINAL_BW: 198.1 g
  APTT: 16 s
  Bas: 0%
  Eos: 1%
  Fbg: 307.2 mg/dL
  Hb: 13.4 g/dL
  Ht: 41.5%
  Lym: 78.2%
  MCH: 21 pg
  MCHC: 32.3%
  MCV: 65.1 fL
  Mono: 2.2%
  Neu: 17.8%
  PT: 13.3 s
  Plat: 117.7 x10_4/uL
  RBC: 636.8 x10_4/ul
  Ret: 8.8%
  WBC: 81.3 x10_2/uL
  KIDNEY_L: 0.9 g
  KIDNEY_R: 0.9 g
  KIDNEY_TOTAL: 1.9 g
  LIVER: 8.3 g
  A/G: 0.9
  ALP: 1322 IU/L
  ALT: 34.6 IU/L
  AST: 67.8 IU/L
  BUN: 8.4 mg/dL
  CRE: 0.2 mg/dL
  Ca: 10.8 mg/dL
  Cl: 104.2 meq/L
  DBIL: 0.002 mg/dL
  GLC: 168.2 mg/dL
  IP: 10.2 mg/dL
  K: 3.8 meq/L
  LDH: 58.4 IU/L
  Na: 141 meq/L
  PL: 133.8 mg/dL
  RALB: 2.5 g/dL
  TBIL: 0.062 mg/dL
  TC: 77.2 mg/dL
  TG: 31 mg/dL
  TP: 5.2 g/dL
  gamma-GTP: 1 IU/L
100 mg/kg, 9 h, dose level Low
  TERMINAL_BW: 195.5 g
  APTT: 16.9 s
  Bas: 0%
  Eos: 0.8%
  Fbg: 303.8 mg/dL
  Hb: 13 g/dL
  Ht: 40.5%
  Lym: 77.4%
  MCH: 20.6 pg
  MCHC: 32.2%
  MCV: 63.9 fL
  Mono: 2.6%
  Neu: 18.4%
  PT: 13.4 s
  Plat: 124.4 x10_4/uL
  RBC: 634.4 x10_4/ul
  Ret: 8.3%
  WBC: 71.6 x10_2/uL
  KIDNEY_L: 0.9 g
  KIDNEY_R: 0.9 g
  KIDNEY_TOTAL: 1.8 g
  LIVER: 7.9 g
  A/G: 0.9
  ALP: 1274 IU/L
  ALT: 35.8 IU/L
  AST: 68.4 IU/L
  BUN: 8 mg/dL
  CRE: 0.2 mg/dL
  Ca: 10.6 mg/dL
  Cl: 105 meq/L
  DBIL: 0 mg/dL
  GLC: 178.2 mg/dL
  IP: 10 mg/dL
  K: 3.9 meq/L
  LDH: 64.2 IU/L
  Na: 141.6 meq/L
  PL: 150.4 mg/dL
  RALB: 2.5 g/dL
  TBIL: 0.058 mg/dL
  TC: 85.4 mg/dL
  TG: 61.6 mg/dL
  TP: 5.3 g/dL
  gamma-GTP: 1 IU/L
[5]
  TERMINAL_BW: 213.3 g
  APTT: 17.6 s
  Bas: 0%
  Eos: 1%
  Fbg: 286.2 mg/dL
  Hb: 13.4 g/dL
  Ht: 41%
  Lym: 76.4%
  MCH: 20.9 pg
  MCHC: 32.7%
  MCV: 63.9 fL
  Mono: 2.6%
  Neu: 19.2%
  PT: 13 s
  Plat: 114.1 x10_4/uL
  RBC: 641.4 x10_4/ul
  Ret: 7.9%
  WBC: 97.3 x10_2/uL
  KIDNEY_L: 0.9 g
  KIDNEY_R: 0.9 g
  KIDNEY_TOTAL: 1.9 g
  LIVER: 10.2 g
  A/G: 0.9
  ALP: 1382.4 IU/L
  ALT: 44.6 IU/L
  AST: 74 IU/L
  BUN: 14.4 mg/dL
  CRE: 0.2 mg/dL
  Ca: 10.9 mg/dL
  Cl: 105.4 meq/L
  DBIL: 0.008 mg/dL
  GLC: 170.8 mg/dL
  IP: 8.3 mg/dL
  K: 4.1 meq/L
  LDH: 57.8 IU/L
  Na: 142.6 meq/L
  PL: 140.8 mg/dL
  RALB: 2.6 g/dL
  TBIL: 0.056 mg/dL
  TC: 72.6 mg/dL
  TG: 76.2 mg/dL
  TP: 5.5 g/dL
  gamma-GTP: 1 IU/L

From ChEMBL document CHEMBL3885861, “Open TG-GATES”
